Experimental data reported in ChEMBL document CHEMBL1124317, “Rationale for the synthesis and preliminary biological evaluation of highly active new antitumor nitrosoureido sugars” (J Med Chem, 1989).

How the values were obtained:
[1] = Number of mice died/no of mice treated with 5 mg/kg of compound in aqueous solution intraperitoneally with L1210 leukemia; 0/10; assay type: functional; settings: route intraperitoneal
Mus musculus [2] = assay: The number of L1210 leukemia mice survived after 30 days with compound in aqueous solution injected by a dose of 5 mg/kg intraperitoneally; 6/10; assay type: functional; settings: route intraperitoneal
Mus musculus [3] = species on record: Mus musculus; assay: Median survival time of the non surviving mice; there are single deaths on day 20, day 21, day 22, and day 25; four deaths occurred; assay type: functional, organism-based
Mus musculus [4] = assay: The number of L1210 leukemia mice survived after 60 days with compound in aqueous solution injected by a dose of 5 mg/kg intraperitoneally; 6/10; assay type: functional; settings: route intraperitoneal
Mus musculus [5] = assay: The number of L1210 leukemia mice survived after 30 days with compound injected by a dose of 5 mg/kg intraperitoneally; 0/8; assay type: functional; settings: route intraperitoneal
[6] = Mortality range of the mice with L1210 leukemia treated with 10 mg/kg of dose intra peritoneally with no of mice survived/no of mice treated; 0/8; assay type: functional
Mus musculus [7] = assay: Anti tumor activity l when treated to mice with L1210 leukemia with 2.5 mg/kg dose of compound intraperitoneally was expressed as percent of treated to control (T/C %); assay type: functional; settings: route intraperitoneal
Mus musculus [8] = assay: The number of L1210 leukemia mice survived after 30 days with compound in aqueous solution injected by a dose of 5 mg/kg intraperitoneally; 0/10; assay type: functional; settings: route intraperitoneal
Mus musculus [9] = assay: The number of L1210 leukemia mice survived after 30 days with compound injected by a dose of 1.25 mg/kg intraperitoneally; 0/8; assay type: functional; settings: route intraperitoneal
[10] = Mortality range of the mice with L1210 leukemia treated with 2.5 mg/kg of dose intraperitoneally with no of mice survived/no of mice treated; 0/8; assay type: functional; settings: route intraperitoneal
Mus musculus [11] = assay: The number of L1210 leukemia mice survived after 60 days with compound in aqueous solution injected by a dose of 5 mg/kg intraperitoneally; 0/10; assay type: functional; settings: route intraperitoneal
[12] = Mortality range of the mice with L1210 leukemia treated with 1.25 mg/kg of dose intraperitoneally with no of mice survived/no of mice treated; 0/8; assay type: functional; settings: route intraperitoneal
Mus musculus [13] = assay: Median survival time of the non surviving mice; treated with 5 mg/kg of compound to mice with L1210 leukemia; 18-24; assay type: functional
Mus musculus [14] = assay: The number of L1210 leukemia mice survived after 30 days with compound injected by a dose of 0.625 mg/kg intraperitoneally; 0/8; assay type: functional; settings: route intraperitoneal
Mus musculus [15] = assay: Anti tumor activity l when treated to mice with L1210 leukemia with 0.625 mg/kg dose of compound intraperitoneally was expressed as percent of treated to control (T/C %); assay type: functional; settings: route intraperitoneal
Mus musculus [16] = assay: Anti tumor activity l when treated to mice with L1210 leukemia with 5 mg/kg dose of compound intraperitoneally was expressed as percent of treated to control (T/C %); assay type: functional; settings: route intraperitoneal
Mus musculus [17] = assay: Anti tumor activity in olive oil when treated to mice with L1210 leukemia with 5 mg/kg dose of compound intraperitoneally was expressed as percent of treated to control (T/C %); assay type: functional; settings: route intraperitoneal
Mus musculus [18] = assay: Median survival time of the non surviving mice; treated with 0.625 mg/kg of compound to mice with L1210 leukemia; 9-10; assay type: functional
[19] = Mortality range of the mice with L1210 leukemia treated with 5 mg/kg of dose intraperitoneally with no of mice survived/no of mice treated; 0/8; assay type: functional; settings: route intraperitoneal
Mus musculus [20] = assay: The number of L1210 leukemia mice survived after 30 days with compound injected by a dose of 10 mg/kg intraperitoneally; 8/8; assay type: functional; settings: route intraperitoneal
Mus musculus [21] = assay: Median survival time of the non surviving mice; treated with 2.5 mg/kg of compound to mice with L1210 leukemia; 11-12; assay type: functional
Mus musculus [22] = assay: Median survival time of the non surviving mice; treated with 5 mg/kg of compound in olive oil to mice with L1210 leukemia; 16-19; assay type: functional
Mus musculus [23] = assay: The number of L1210 leukemia mice survived after 30 days with compound injected by a dose of 2.5 mg/kg intraperitoneally; 0/8; assay type: functional; settings: route intraperitoneal
Mus musculus [24] = assay: Anti tumor activity l when treated to mice with L1210 leukemia with 1.25 mg/kg dose of compound intraperitoneally was expressed as percent of treated to control (T/C %); assay type: functional; settings: route intraperitoneal
[25] = Mortality range of the mice with L1210 leukemia treated with 0.625 mg/kg of dose intraperitoneally with no of mice survived/no of mice treated; 0/8; assay type: functional; settings: route intraperitoneal
Mus musculus [26] = assay: Median survival time of the non surviving mice; treated with 1.25 mg/kg of compound to mice with L1210 leukemia; 9-11; assay type: functional
Mus musculus [27] = assay: The number of Lewis lung mice survived after 60 days with compound in olive oil injected by a dose of 20 mg/kg intraperitoneally; 6/20; assay type: functional; settings: route intraperitoneal
Mus musculus [28] = assay: The number of L1210 Leukemia mice survived after 60 days with compound in olive oil injected by a dose of 20 mg/kg intraperitoneally; 15/15; assay type: functional; settings: route intraperitoneal
[29] = Ratio of mice died to that of mice treated with 20 mg/kg of compound in olive oil intraperitoneally with L1210 leukemia tumor; 0/15; assay type: functional; settings: route intraperitoneal
Mus musculus [30] = assay: The number of Lewis lung mice survived after 30 days with compound in olive oil injected by a dose of 20 mg/kg intraperitoneally; 14/20; assay type: functional; settings: route intraperitoneal
Mus musculus [31] = assay: The number of B16 melanocarcinoma mice survived after 30 days with compound in olive oil injected by a dose of 20 mg/kg intraperitoneally; 1/20; assay type: functional; settings: route intraperitoneal
Mus musculus [32] = assay: Median survival time of the non surviving mice; treated with 20 mg/kg of compound in olive oil to mice with B16 Melanocarcinoma; 20-32; assay type: functional
Mus musculus [33] = assay: Anti tumor activity in olive oil when treated to mice with Lewis lung with 20 mg/kg dose of compound intraperitoneally was expressed as percent of treated to control (T/C %); assay type: functional; settings: route intraperitoneal
Mus musculus [34] = assay: Anti tumor activity in olive oil when treated to mice with B16 melanocarcinoma with 20 mg/kg dose of compound intraperitoneally was expressed as percent of treated to control (T/C %); assay type: functional; settings: route intraperitoneal
[35] = Ratio of mice died to that of mice treated with 20 mg/kg of compound in olive oil intraperitoneally with Lewis lung; 0/20; assay type: functional; settings: route intraperitoneal
[36] = Ratio of mice died to that of mice treated with 20 mg/kg of compound in olive oil intraperitoneally with B16 Melanocarcinoma; 0/20; assay type: functional; settings: route intraperitoneal
Mus musculus [37] = assay: The number of B16 melanocarcinoma mice survived after 60 days with compound in olive oil injected by a dose of 20 mg/kg intraperitoneally; 0/20; assay type: functional; settings: route intraperitoneal
Mus musculus [38] = assay: The number of L1210 Leukemia mice survived after 30 days with compound in olive oil injected by a dose of 20 mg/kg intraperitoneally; 15/15; assay type: functional; settings: route intraperitoneal
Mus musculus [39] = assay: Median survival time of the non surviving mice; treated with 20 mg/kg of compound in olive oil to mice with Lewis lung; 19-46; assay type: functional

Q: Which Ratio [1] does the source give for `CO[C@H]1C[C@@H](NC(=O)N(CCCl)N=O)[C@H](O)[C@@H](CO)O1` here?
A: 0

Q: And the Survivals (Mus musculus [2])?
A: 6

Q: What about the Number of deaths (Mus musculus [3]) of the same compound?
A: 4

Q: And the Survivals (Mus musculus [4])?
A: 6

Q: With `O=NN(CCCl)C(=O)NCCCl` [CARMUSTINE] as the compound, how does the Survivals (Mus musculus [5]) read?
A: 0

Q: What about the Ratio [6] of the same compound?
A: 0

Q: And the T/C (Mus musculus [7])?
A: 128%

Q: What about the Ratio [1] of the same compound?
A: 0

Q: And the Survivals (Mus musculus [8])?
A: 0

Q: And the Survivals (Mus musculus [9])?
A: 0

Q: And the Ratio [10]?
A: 0

Q: What about the Survivals (Mus musculus [11]) of the same compound?
A: 0

Q: And the Ratio [12]?
A: 0

Q: What about the Median survival time (Mus musculus [13]) of the same compound?
A: 19.8

Q: And the Survivals (Mus musculus [14])?
A: 0

Q: And the T/C (Mus musculus [15])?
A: 104%

Q: And the T/C (Mus musculus [16])?
A: 220%

Q: What about the T/C (Mus musculus [17]) of the same compound?
A: 177%

Q: And the Median survival time (Mus musculus [18])?
A: 9.4

Q: What about the Ratio [19] of the same compound?
A: 0

Q: What about the Survivals (Mus musculus [20]) of the same compound?
A: 8

Q: And the Median survival time (Mus musculus [21])?
A: 11.5

Q: What about the Median survival time (Mus musculus [22]) of the same compound?
A: 16.75

Q: And the Survivals (Mus musculus [23])?
A: 0

Q: What about the T/C (Mus musculus [24]) of the same compound?
A: 110%

Q: What about the Ratio [25] of the same compound?
A: 0

Q: And the Median survival time (Mus musculus [26])?
A: 9.9

Q: For `COC1CC(NC(=O)N(CCCl)N=O)C(OC)C(C)O1` (stereo not given), which Survivals (Mus musculus [27]) is on record?
A: 6

Q: What about the Survivals (Mus musculus [28]) of the same compound?
A: 15

Q: What about the Ratio [29] of the same compound?
A: 0

Q: And the Survivals (Mus musculus [30])?
A: 14

Q: What about the Survivals (Mus musculus [31]) of the same compound?
A: 1

Q: And the Median survival time (Mus musculus [32])?
A: 23.62

Q: And the T/C (Mus musculus [33])?
A: 281%

Q: What about the T/C (Mus musculus [34]) of the same compound?
A: 170%

Q: And the Ratio [35]?
A: 0

Q: And the Ratio [36]?
A: 0

Q: What about the Survivals (Mus musculus [37]) of the same compound?
A: 0

Q: What about the Survivals (Mus musculus [38]) of the same compound?
A: 15

Q: What about the Median survival time (Mus musculus [39]) of the same compound?
A: 35
